The values below are quoted from earlier work in patent US20070122507A1, “Histone deacetylase and tumor necrosis factor converting enzyme inhibition” (priority 2005, published 2007).

In the data set the test system is R6/2 transgenic mouse models. Particulars: HD in R6/2 transgenic mouse models.

As to `CCCC(=O)[O-].[Na+]` [sodium butyrate], the motor deficits result is listed as “reduces”, the neuropathological effects result is “reduces” and the survival result was “significantly enhances survival”.
